Data from patent publication US6291507A, “Chemical compounds” (Astrazeneca UK Limited, priority 1998, dated 2001).

Target: T1, hMCP-1 receptor (MCP-1 receptor B, CCR2B) (Homo sapiens, UniProt P41597)
T1 construct: expressed in transfected cells; host or cells: CHO-K1 (clone 7, CHO-CCR2B), membrane fragments
T1 sequence (P41597 1-360 isoform P41597-2): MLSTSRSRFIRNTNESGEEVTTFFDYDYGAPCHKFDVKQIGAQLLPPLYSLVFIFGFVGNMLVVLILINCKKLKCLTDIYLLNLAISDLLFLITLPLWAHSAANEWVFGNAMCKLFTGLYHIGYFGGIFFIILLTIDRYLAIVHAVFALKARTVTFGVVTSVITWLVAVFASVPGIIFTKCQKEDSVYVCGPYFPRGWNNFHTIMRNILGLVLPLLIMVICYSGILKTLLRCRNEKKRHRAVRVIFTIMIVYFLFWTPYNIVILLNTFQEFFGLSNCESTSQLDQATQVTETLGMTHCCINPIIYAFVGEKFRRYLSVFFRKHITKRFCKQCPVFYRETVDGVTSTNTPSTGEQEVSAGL
Experiment: hMCP-1 receptor-binding assay
Conditions: competition with 100 pM 125I-labelled MCP-1; CHO-CCR2B cell membranes; 0.1-200 μM, eight point dose-response curves in duplicate
Description: a) hMCP-1 Receptor-binding Assay
The MCP-1 receptor B (CCR2B) cDNA was cloned by PCR from THP-1 cell RNA using suitable oligonucleotide primers based on the published MCP-1 receptor sequences (Charo et al., 1994, Proc. Natl. Acad. Sci. USA, 91, 2752). The resulting PCR products were cloned into vector PCR-II™ (InVitrogen, San Diego, Calif.). Error free CCR2B cDNA was subcloned as a Hind III-Not I fragment into the eukaryotic expression vector pCDNA3 (InVitrogen) to generate pCDNA3/CC-CKR2A and pCDNA3/CCR2B respectively.
Linearised pCDNA3/CCR2B DNA was transfected into CHO-KI cells by calcium phosphate precipitation (Wigler et al., 1979, Cell, 16, 777). Transfected cells were selected by the addition of Geneticin Sulphate (G418, Gibco BRL) at 1 mg/ml, 24 hours after the cells had been transfected. Preparation of RNA and Northern blotting were carried out as described previously (Needham et al., 1995, Prot. Express. Purific., 6, 134). CHO-K1 clone 7 (CHO-CCR2B) was identified as the highest MCP-1 receptor B expressor.
CHO-CCR2B cells were grown in DMEM supplemented with 10% foetal calf serum, 2 mM glutamine, lx Non-Essential Amino Acids, 1× Hypoxanthine and Thymidine Supplement and Penicillin-Streptomycin (at 50 μg streptomycin/ml; Gibco BRL). […]

IC50: 400 nM
Compound: Cc1c2c(n(Cc3ccc(Cl)c(Cl)c3)c1C(=O)O)CCCC2=O [Example 4a, 1-(3,4-Dichlorobenzyl)-3-methyl-4-oxo-4,5,6,7-tetrahydroindole-2-carboxylicAcid]
